The target in assay [1] is Human immunodeficiency virus type 1 protease (Human immunodeficiency virus 1) (UniProt Q72874). The assay can be described thus: The compound was evaluated for irreversible inhibition of HIV-1 protease.
For assay [2] the target is unchanged. Briefly: The compound was evaluated for irreversible inhibition of HIV-1 protease at pH 6.5.
Assay [3] has the same target. The assay can be described thus: Maximal inactivation rate towards HIV-1 protease was evaluated.
For assay [4] the target is unchanged. The assay can be described thus: The compound was evaluated for irreversible inhibition of HIV-1 protease at 20 uM.
Assay [5] in a line: Bimolecular rate constant is the ratio of Vinact/Kinact.

The inhibition is the change of the read-out against control, counted positive when it falls.

Compound `O=[N+]([O-])c1ccc(OCC2CO2)cc1` (configuration not stated) displayed a K inact in assay [1] of 11000 µM.
In assay [2], `CC(C)C(NC(=O)OCc1ccccc1)C(=O)OC[C@@H]1O[C@@H]1COc1ccc([N+](=O)[O-])cc1` (some centres not stated) returned a K inact of 1.8 µM. The compound further yielded a Vinact in assay [3] of 0.26 min⁻¹. Also, in assay [4], the inhibition was found to be 88%. Besides, in assay [5], the Ratio stood at 140000 M⁻¹ min⁻¹.
As for `CC(C)C(NC(=O)OCc1ccccc1)C(=O)NC(C(=O)OC[C@@H]1O[C@@H]1COc1ccc([N+](=O)[O-])cc1)C(C)C` (some centres not stated), in assay [4], the inhibition is 25%.
On to `O=C(OCC1c2ccccc2-c2ccccc21)N1CCC2OC2C1` (configuration not stated), for which, in assay [1], the K inact was determined as 65 µM.
In turn, `CC(C)C(NC(=O)OCc1ccccc1)C(=O)N[C@@H](Cc1ccccc1)[C@@H]1O[C@@H]1[C@H](Cc1ccccc1)NC(=O)C(NC(=O)OCc1ccccc1)C(C)C` (some centres not stated) came in with a K inact in assay [1] of 0.075 µM.
In assay [4], `COC(=O)C(NC(=O)[C@@H]1O[C@@H]1COc1ccc([N+](=O)[O-])cc1)C(C)C` (some centres not stated) returned an inhibition of 22%.
For `COC(=O)C(CC(C)C)NC(=O)[C@@H]1O[C@@H]1COc1ccc([N+](=O)[O-])cc1` (some centres not stated), the inhibition in assay [4] was found to be 30%.
`CC(C)C[C@@H]1O[C@@H]1[C@H](Cc1ccccc1)NC(=O)[C@H](C)NC(=O)[C@H](Cc1ccccc1)NC(=O)OCc1ccccc1`: the K inact in assay [1] was 20 µM.
In assay [4], `COC(=O)C(CC(C)C)NC(=O)[C@@H]1O[C@@H]1CCc1ccccc1` (some centres not stated) registered an inhibition of 19%.

The record behind these values is ChEMBL document CHEMBL1149993, “Simple cis-epoxide-based inhibitors of HIV-1 protease” (Bioorg Med Chem Lett, 1997).
